# Source: patent US9533965B2, “2-arylbenzofuran-7-formamide compounds, preparation method and use thereof” (SHANGHAI INSTITUTE OF MATERIA MEDICA, CHINESE ACADEMY OF …, priority 2012, dated 2017)
# Where “and” joins values, the source holds several entries; their conditions need not be identical. Equal values may be shown once. Read-outs that look alike come from different tables or passages of the source.
# Tests used:
# [1] = target: T1, PARP3 (Homo sapiens, UniProt Q9Y6F1); assay: Enzymatic inhibition on the PARP family members (ELISA), PARP3; format: biochemical; details: PARP family panel
# T1 sequence (Q9Y6F1 1-533): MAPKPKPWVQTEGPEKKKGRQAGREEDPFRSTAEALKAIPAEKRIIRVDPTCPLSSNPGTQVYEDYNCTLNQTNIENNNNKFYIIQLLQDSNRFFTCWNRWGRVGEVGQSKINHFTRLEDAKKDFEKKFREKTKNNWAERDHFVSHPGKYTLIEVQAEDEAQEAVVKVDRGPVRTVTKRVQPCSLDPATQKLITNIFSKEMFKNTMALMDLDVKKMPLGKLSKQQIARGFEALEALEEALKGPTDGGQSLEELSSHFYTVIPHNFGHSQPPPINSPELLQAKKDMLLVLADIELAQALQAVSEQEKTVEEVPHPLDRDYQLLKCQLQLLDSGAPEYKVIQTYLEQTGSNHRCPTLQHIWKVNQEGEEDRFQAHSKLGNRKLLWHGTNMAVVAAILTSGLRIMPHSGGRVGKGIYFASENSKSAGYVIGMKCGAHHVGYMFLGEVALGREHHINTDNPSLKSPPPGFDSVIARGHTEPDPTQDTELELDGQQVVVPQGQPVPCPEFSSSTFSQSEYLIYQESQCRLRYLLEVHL
# [2] = Preliminary pharmacokinetic experiment in rats by gavage; format: in vivo, SD rats; details: 10 mg/kg by gavage
# Protocol: Healthy SD rats (supplied by Shanghai Sippr-BK Lab. Animal Co. Ltd, the Production License Number for the experimental animals: SCXK (hu), 200-220 g of weight, male) were divided into groups randomly and administrated by gavage, respectively. The compound was dissolved in normal saline.
# The rats fasted for 12 h and could drink water ad libitum before experiment. 2 h after dosing, the rats were provided with food all together.
# The time point for collecting blood samples and the sample processing are listed as follows.
# Intragastric administration: 0.25, 0.5, 1.0, 2.0, 3.0, 5.0, 7.0, 9.0 and 24 h after administration: 0.3 mL venous blood was taken from retrobulbar venous plexus of the rat and loaded into heparinization tubes. After being centrifuged at 11000 rpm for 5 min, the plasma was separated and frozen at −20° C. in a refrigerator.
# [3] = target: T2, TNKS2 (Homo sapiens, UniProt Q9H2K2); assay: Enzymatic inhibition on the PARP family members (ELISA), TNKS2; format: biochemical; details: PARP family panel, 30° C.
# T2 sequence (Q9H2K2 1-1166): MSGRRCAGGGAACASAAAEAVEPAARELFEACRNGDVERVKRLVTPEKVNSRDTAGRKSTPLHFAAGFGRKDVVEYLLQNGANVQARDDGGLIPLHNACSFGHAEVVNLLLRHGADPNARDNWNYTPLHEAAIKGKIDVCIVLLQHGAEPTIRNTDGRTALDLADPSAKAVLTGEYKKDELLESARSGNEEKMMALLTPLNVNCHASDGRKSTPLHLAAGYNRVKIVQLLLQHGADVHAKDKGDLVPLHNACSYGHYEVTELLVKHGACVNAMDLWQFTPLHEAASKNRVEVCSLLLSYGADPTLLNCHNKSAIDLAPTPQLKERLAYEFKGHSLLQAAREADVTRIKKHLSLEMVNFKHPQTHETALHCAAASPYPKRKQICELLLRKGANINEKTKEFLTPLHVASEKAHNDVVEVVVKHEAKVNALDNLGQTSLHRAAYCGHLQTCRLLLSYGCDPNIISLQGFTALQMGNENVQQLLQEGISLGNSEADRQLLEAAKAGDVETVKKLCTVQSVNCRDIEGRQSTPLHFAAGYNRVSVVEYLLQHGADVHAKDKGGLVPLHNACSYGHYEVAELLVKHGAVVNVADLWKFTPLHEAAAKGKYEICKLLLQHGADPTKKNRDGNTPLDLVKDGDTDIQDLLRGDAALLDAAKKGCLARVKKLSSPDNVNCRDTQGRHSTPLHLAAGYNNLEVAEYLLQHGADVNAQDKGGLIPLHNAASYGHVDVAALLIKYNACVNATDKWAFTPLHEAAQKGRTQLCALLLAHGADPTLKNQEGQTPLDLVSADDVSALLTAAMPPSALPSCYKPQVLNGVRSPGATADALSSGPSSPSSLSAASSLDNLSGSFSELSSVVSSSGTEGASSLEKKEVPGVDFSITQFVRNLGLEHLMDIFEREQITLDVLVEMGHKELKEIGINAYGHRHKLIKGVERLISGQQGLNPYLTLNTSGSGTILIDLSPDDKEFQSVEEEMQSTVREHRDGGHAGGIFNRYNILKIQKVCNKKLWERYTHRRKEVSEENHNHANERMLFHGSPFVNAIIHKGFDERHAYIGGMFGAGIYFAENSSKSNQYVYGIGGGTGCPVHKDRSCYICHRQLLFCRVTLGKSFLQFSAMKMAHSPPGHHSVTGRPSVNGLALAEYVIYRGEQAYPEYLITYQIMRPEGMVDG
# [4] = tested on: wild type cell line V79; assay: In vitro cell proliferation inhibition (MTT), V79 cells; format: cell-based, Chinese hamster; details: Cricetulus griseus; MTT, 72 h, wild type V79; read-out: V79 cell IC50
smiles,measurement,setting,value
"CNCc1ccc(-c2cc3cc(F)cc(C(N)=O)c3o2)cc1 [compound 5b, 5-fluoro-2-{4-[(methylamino)methyl]phenyl}benzofuran-7-carboxamide]",IC50,[1],> 10 µM
same,eliminate rate in vivo,[2],moderate
same,AUC0-t,[2]; 10 mg/kg,394 ng·h/mL and 587 ng·h/mL and 352 ng·h/mL and 474 ng·h/mL
same,AUC0-∞,[2]; 10 mg/kg,595 ng·h/mL and 407 ng·h/mL and 478 ng·h/mL
same,MRT,[2]; 10 mg/kg,3.82 h and 3.34 h and 5.57 h and 3.04 h
same,AUC0-∞,"[2]; 10 mg/kg, mean",471 ng·h/mL
same,bioavailability,"[2]; male, Sprague-Dawley (SD), rat, plasma, po, read-out: F (absolute bioavailability)",58.9%
same,AUC(0-inf),"[2]; male, Sprague-Dawley (SD), rat, plasma, po, 10 mg/kg",404 ng·h/mL
same,AUC0-t,"[2]; male, Sprague-Dawley (SD), rat, plasma, po, 10 mg/kg, read-out: AUC0-t",452 ± 103 ng·h/mL
same,MRT,"[2]; male, Sprague-Dawley (SD), rat, plasma, po, 10 mg/kg, read-out: MRT",3.94 ± 1.13 h
same,IC50,[3],1.3 µM
same,IC50,[4],> 10 µM
